Source: patent EP0261503B1, “Heterocyclic amido derivatives of substituted benzoic acids and therapeutic compositions which contain them as active principle” (VALEAS S.p.A. INDUSTRIA CHIMICA E FARMACEUTICA, priority 1986, dated 1988)

Tests used:
[1] = system: passive cutaneous anaphylaxis; assay: passive cutaneous anaphylaxis test (PCA) in the rat, oral administration; format: in vivo; conditions: PCA test on the rat, oral administration 30 minutes before antigen challenge; for Activity: relative to Tranilast = 1
Method: The products of general formula (I) listed in Table 1 were subjected to a first pharmacological screening to evaluate their activity after oral administration in the passive cutaneous anaphylaxis test (PCA) in the rat in accordance with Goose J. and Blair A.M.J.N. (Immunology, 16, 749-760, 1969). Serum, obtained from rats actively sensitized with ovalbumin and suitably diluted, was injected intradermally into the shave back of male Sprague Dawley rats, and after 24 hours these were treated intravenously with a solution of ovalbumin and Evans blue. Thirty minutes after the antigen challenge, the animals were sacrificed and the diameter and intensity of the blue halo which has formed in the intradermal injection site was measured. The compounds according to the invention, and also tranilast (N-3ʹ, 4ʹ-dimethoxycinnamoyl) anthranilic acid) used as reference standard, were dissolved-suspended in suitable solvents (carboxymethylcellulose, gum arabic, DMSO etc.) and administered orally thirty minutes before the antigen challenge. Table 2 lists the ED₅₀ values and the relative confidence limits at p = 0.05.

[2] = system: passive cutaneous anaphylaxis; assay: passive cutaneous anaphylaxis test (PCA) in the rat, intraperitoneal administration; format: in vivo; conditions: ip, PCA test on the rat, 15 minutes before antigen challenge, versus control group
Method: The products of general formula (I) listed in Table 1 were subjected to a first pharmacological screening to evaluate their activity after oral administration in the passive cutaneous anaphylaxis test (PCA) in the rat in accordance with Goose J. and Blair A.M.J.N. (Immunology, 16, 749-760, 1969). Serum, obtained from rats actively sensitized with ovalbumin and suitably diluted, was injected intradermally into the shave back of male Sprague Dawley rats, and after 24 hours these were treated intravenously with a solution of ovalbumin and Evans blue. Thirty minutes after the antigen challenge, the animals were sacrificed and the diameter and intensity of the blue halo which has formed in the intradermal injection site was measured. Some of the compounds according to the invention were subjected to a further passive cutaneous anaphylaxis test evaluation to determine their efficiency after intraperitoneal administration at a dose of 100 mg/kg, fifteen minutes before the challenge. […]

SMILES | Activity [1] | ED₅₀ [1] [mmoles/kg/os] | inhibition at 100 mg/kg [2] [%]
COc1cccc(C(=O)Nc2sc(C)cc2C(=O)O)c1N [Compound 16, 3-THIOPHENE CARBOXYLIC ACID, 2-[(2-AMINO-3-METHOXY BENZOYL)AMINO]-5-METHYL] | 41.0 |  | 
CCOC(=O)c1cc(C)sc1NC(=O)c1cccc(OC)c1NC(C)=O [Compound 15, 3-THIOPHENE CARBOXYLIC ACID, 2-[(2-ACETYL AMINO-3-METHOXY BENZOYL)AMINO]-5-METHYL, ETHYL ESTER] | 24.6 | 0.013 | 
CCOC(=O)c1cc(C)sc1-n1c(=O)[nH]c2c(OC)cccc2c1=O [Compound 32, 8-METHOXY-3-[(3-ETHOXY CARBONYL-5-METHYL)-THIENYL]-2,4 QUINAZOLONE] | 4.0 | 0.08 | 52.7
CCOC(=O)C(=O)Nc1c(OC)cccc1C(=O)Nc1sc(C)cc1C(=O)OCC [Compound 18, 3-THIOPHENE CARBOXYLIC ACID, 2-[[2-AMINO(OXOACETIC ACID ETHYL ESTER)-3-METHOXY BENZOYL] AMINO]-5-METHYL, ETHYL ESTER] | 114.3 |  | 
CCOC(=O)Cc1csc(NC(=O)c2cccc(OC)c2N)n1 [Compound 25, 4-THIAZOLE ACETIC ACID, 2-[(2-AMINO-3-METHOXY BENZOYL)AMINO], ETHYL ESTER] | 64.0 |  | 43.1
COc1ccc(C=CC(=O)Nc2ccccc2C(=O)O)cc1OC [Tranilast, N-(3ʹ,4ʹ-dimethoxycinnamoyl) anthranilic acid, reference compound] | 1 | 0.32 | 
CCOC(=O)c1cc(C)sc1NC(=O)c1cccc(OC)c1[N+](=O)[O-] [Compound 1, 3-thiophene carboxylic acid-2-[(2-nitro-3-methoxybenzoyl)amino]-5-methyl ethyl ester] | 1.5 | 0.21 | 59.4
CCOC(=O)c1cc(C)sc1NC(=O)c1cccc(OC)c1N [Compound 7, 3-THIOPHENE CARBOXYLIC ACID, 2[(2-AMINO-3-METHOXY BENZOYL)AMINO]-5-METHYL-ETHYL ESTER] | 450.7 |  | 31.9
CCOC(=O)C(O)c1csc(-n2c(=O)[nH]c3c(OC)cccc3c2=O)n1 (stereo not drawn) [Compound 36, 8-METHOXY-3-[[5-(α-HYDROXY ETHYL ACETATE)]-THIAZENYL]-2,4 QUINAZOLONE] | 5.9 | 0.054 | 40.7
CCOC(=O)Cc1csc(NC(=O)c2cc(C)ccc2N)n1 [Compound 37] | 213.3 |  | 88.4
